Data taken from article PMC11655196, “Angiotensin-I-converting enzyme inhibitory peptides from eel (Anguilla japonica) bone collagen: preparation, identification, molecular docking, and protective function on HUVECs” (Frontiers in Nutrition, 2024).
Read-outs that look alike come from different tables or passages of the source. Blank lines part the entries; values can stand above or below the substance they belong to. Ends that are not written are not given here.

Experiments:
ACE [1] = molecular target: T1, ACE (Oryctolagus cuniculus, UniProt P12822); assay: ACE inhibition kinetics (Lineweaver-Burk plots); assay type: biochemical, rabbit; details: GPPGPPGL 0–100 μM, HHL 2 to 5 mM
T1 construct: ACE (≥2.0 U/mg, rabbit lung) was purchased; purchased Shanghai Yuanye Biotechnology Co., Ltd. (Shanghai, China); host or cells: rabbit lung (tissue-derived)
T1 sequence (P12822 34-1310): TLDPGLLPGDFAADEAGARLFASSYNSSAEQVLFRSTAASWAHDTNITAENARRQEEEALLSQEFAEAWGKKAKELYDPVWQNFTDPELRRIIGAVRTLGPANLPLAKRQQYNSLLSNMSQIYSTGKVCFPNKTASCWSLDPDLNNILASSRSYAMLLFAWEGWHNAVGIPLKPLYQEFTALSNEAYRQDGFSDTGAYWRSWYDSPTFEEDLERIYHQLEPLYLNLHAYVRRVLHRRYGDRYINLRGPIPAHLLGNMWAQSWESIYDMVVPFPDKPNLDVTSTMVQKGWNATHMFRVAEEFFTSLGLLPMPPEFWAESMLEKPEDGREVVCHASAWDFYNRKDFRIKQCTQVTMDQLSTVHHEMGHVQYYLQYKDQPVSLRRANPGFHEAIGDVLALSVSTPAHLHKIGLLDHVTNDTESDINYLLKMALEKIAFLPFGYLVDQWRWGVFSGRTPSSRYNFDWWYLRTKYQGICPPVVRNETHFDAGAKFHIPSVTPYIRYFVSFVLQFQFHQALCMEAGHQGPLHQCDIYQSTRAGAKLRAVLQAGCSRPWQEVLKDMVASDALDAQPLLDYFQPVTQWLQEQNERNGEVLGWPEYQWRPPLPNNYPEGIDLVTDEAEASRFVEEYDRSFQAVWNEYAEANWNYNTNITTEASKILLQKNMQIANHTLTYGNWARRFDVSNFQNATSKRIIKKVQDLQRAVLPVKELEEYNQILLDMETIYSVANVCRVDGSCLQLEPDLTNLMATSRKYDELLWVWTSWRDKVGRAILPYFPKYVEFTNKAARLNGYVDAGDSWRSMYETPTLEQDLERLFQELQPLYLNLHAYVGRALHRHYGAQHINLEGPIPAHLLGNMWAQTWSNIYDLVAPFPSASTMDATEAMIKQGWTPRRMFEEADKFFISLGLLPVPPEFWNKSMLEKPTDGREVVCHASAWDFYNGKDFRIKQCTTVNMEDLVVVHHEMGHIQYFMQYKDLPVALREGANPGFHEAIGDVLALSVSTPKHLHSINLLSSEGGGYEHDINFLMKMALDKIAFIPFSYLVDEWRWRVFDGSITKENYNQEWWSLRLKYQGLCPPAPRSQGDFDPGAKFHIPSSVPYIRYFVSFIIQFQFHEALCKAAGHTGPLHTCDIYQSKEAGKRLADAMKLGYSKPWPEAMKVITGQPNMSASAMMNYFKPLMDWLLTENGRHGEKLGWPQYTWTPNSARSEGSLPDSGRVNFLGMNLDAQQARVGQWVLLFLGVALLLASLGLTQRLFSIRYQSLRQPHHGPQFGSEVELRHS
Protocol: The ACE inhibition kinetics of the chosen peptides were determined using the method of previous research ([20]), using Lineweaver–Burk plots. The measurement of ACE activity was conducted at different concentrations of peptides, and HHL concentrations ranging from 2 to 5 mM were included. The Michaelis–Menten kinetic equation was used to compute the Michaelis–Menten constant (Km) and maximum reaction rate (Vmax) using data obtained from the Lineweaver–Burk plots.

ACE [2] = details: read-out: IC50 (blood pressure lowering peptide, ACE), cited from earlier work
Text: There were various peptides derived from food that are recognized for their ability to inhibit ACE activity, potentially leading to a reduction in blood pressure levels in vivo ([6]).

[3] = from conger eel (Conger myriaster); read-out: IC50 (anti-oxidative effects); cited from earlier work
Text: Anguilla japonica, also known as eel, is a type of aquatic food that contains high levels of protein, fat, vitamin A, vitamin E, and other nutrients ([11]). It is particularly abundant in collagen. Eel processing is mainly based on grilled eel, most of which is exported abroad. During the eel processing of eels, various by-products such as fish heads and bones are generated. These by-products are mainly used in the production of animal feed or discarded. Eel bones have approximately 13.25% of protein, 19.18% of lipid, 5.63% of ash, and 56.96% of moisture content ([12]). Some bioactive peptides ...

Km with increasing peptide level (ACE [1]): increase
Substance: GPPGPPGL [GPPGPPGL]

Substance: Gln-Val-Glu-Tyr [literature peptide from Gracilariopsis lemaneiformis]
IC50 (ACE [2]; from Gracilariopsis lemaneiformis): 474 µM

Substance: Ile-Pro-Ile-Lys [literature peptide from Euphausia superba]
IC50 (ACE [2]; from Euphausia superba): 57.4 µM

Substance: LGLNGDDVN [literature anti-oxidative peptide from conger eel (Conger myriaster)]
IC50 [3]: 78.5 µM

Substance: Trp-Pro-Met-Gly-Phe [literature peptide from Cyclina sinensis]
IC50 (ACE [2]; from Cyclina sinensis): 789 µM
